{"source": "patent US20240382612A1", "about": "“BIOACTIVE CONJUGATE, PREPARATION METHOD THEREFOR AND USE THEREOF” (priority 2017, published 2024)", "key": {"[1]": {"tested_on": "MDA-MB-468 (Trop-2 positive cell lines)", "test": "In-vitro cell activity test (CCK8), MDA-MB-468", "assay_type": "cell-based", "settings": "Homo sapiens, 96 h; MDA-MB-468, 7500 cells/well, 4 days; read-out: EC50 (nM), killing effects of bioactive molecules on cells", "description": "(§1) First, tumor cells MDA-MB-468 (Trop-2 positive cell lines) and HCC1806 (Trop-2 positive cell lines) were cultured. The bioactive molecules and ADC molecules disclosed in the disclosure were co-cultured with the tumor cells, then a CCK8 reagent (Dojindo Molecular Technologies, Inc., Cat: CK04, Lot:JJ744) was added. The activity of dehydrogenase in mitochondria was tested through readings (detection wave length was 450 nm) from a microplate reader (manufacturer: Molecular Devices, model: SpectraMax M2) so as to evaluate the inhibitory effect of ADC on cell proliferation.\n(§2) In-vitro cell activity testing: bioactive molecules or ADCs were diluted (12 concentration gradients) with corresponding test media (containing 2% FBS). The tumor cells were trypsinized with trypsin by a conventional method, collected and counted, and then resuspended with corresponding test media (containing 2% FBS). Diluted bioactive molecules or ADCs were added to a 96-well plate, and then cells were added. 20 μL of the CCK8 reagent was added to each well and reacted for 4 h, and readings (detection wavelength was 450 nm) were taken from a microplate reader."}, "[2]": {"tested_on": "HCC1806 (Trop-2 positive cell lines)", "test": "In-vitro cell activity test (CCK8), HCC1806", "assay_type": "cell-based", "settings": "Homo sapiens, read-out: EC50 (nM), killing effects of bioactive molecules on cells", "description": "as §1, §2"}, "[3]": {"tested_on": "human gastric cancer cell line NCI-N87", "test": "Experimental example 1: NCI-N87 gastric cancer subcutaneous xenograft, tumor inhibition", "assay_type": "in vivo, Balb/c-nu mice", "settings": "D21 after administration; IV, BIW×3W; BT001021 and Immu-132 3 mg/kg, toxins T-030 and SN-38 equimolar to ADC", "description": "Tumor-bearing mice (6 mice/group) with tumor volume of 100-200 mm^3 were randomly grouped (the number of groups was determined according to sample number). The administration volume was 10 ml/kg, and the administration route was tail intravenous injection. The mice were administered twice a week, and tumor diameter was measured with a vernier caliper, and tumor volume was calculated based on the following calculation formula: V=0.5 a×b^2, wherein a and b stand for the long diameter and short diameter of a tumor respectively. Animal deaths were observed and recorded every day.\nThe tumor growth inhibition rate TGI (%) was calculated from the following formula to evaluate tumor inhibitory effect of antibody drug conjugates:\nSpecifically, in the experimental examples 1 and 2, tumor-bearing mice models were constructed by subcutaneous xenograft of a human gastric cancer cell line NCI-N87 or a human triple negative breast cancer cell line HCC1806. After the tumor volume was about 100 mm^3, the mice were randomly grouped, and intravenously administered with BT001021 twice a week for a total of 6 times. Changes in tumor volume and animal body weight were measured twice a week to evaluate the efficacy (tumor inhibitory effect) of the antibody drug conjugate on tumor-bearing mice.\nNCI-N87 cells were cultured in a 1640 culture medium containing 10% fetal bovine serum at 37° C. and 5% CO2. NCI-N87 cells in the exponential growth stage were collected, resuspended in PBS to a suitable concentration, and inoculated subcutaneously into female Balb/c-nu mice to construct gastric cancer models. When the mean tumor volume was about 90 mm^3, the mice were randomly grouped into a physiological saline group, a BT001021 (3 mg/kg, IV, BIW×3W) group, a positive drug Immu-132 (3 mg/kg, IV, BIW×3W) group, a T030 group and a SN38 group according to the tumor size, followed by tail intravenous injection of corresponding drugs twice a week for a total of 6 times. After administration, the tumor volume and body weight of the mice were observed and measured regularly."}, "[4]": {"test": "Experimental example 6: pharmacokinetics of BT001021 and T-030 in NCI-N87 tumor-bearing mice (T-030 in tumor and serum, LC-MS/MS)", "assay_type": "in vivo, Balb/c-nu mice", "settings": "T-030 0.23 mg/kg, single dose; for Cmax / AUC(0-t) / MRT inf / half-life: iv, 0.23 mg/kg; for AUC(0-t): read-out: AUClast (h*ng/ml) of T-030; for MRT inf: read-out: MRTINF (h) of T-030; for half-life: read-out: T1/2 (h) of T-030 (converted)", "description": "Experimental example 6 was used to evaluate pharmacokinetics of antibody drug conjugates and bioactive molecules in vivo. Specifically, in the experiment, a tumor-bearing mice model was constructed by subcutaneous xenograft of a human gastric cancer cell line NCI-N87 to Balb/c-nu mice. After the tumor volume was 100-200 mm^3, the mice were randomly grouped, and intravenously administrated with a single dose of BT001021 and T-030. The concentration of the T-030 in tumor tissues and serum was determined to evaluate the pharmacokinetics in vivo of the antibody conjugate BT001021 and the bioactive molecule T-030 in the tumor-bearing mice.\nTumor-bearing mice (4 mice/group) with tumor volume of 100-200 mm^3 were randomly grouped (the number of groups was determined according to sample number), and the administration route was single tail intravenous injection.\nNCI-N87 cells were cultured in a 1640 culture medium containing 10% heat-inactivated fetal bovine serum at 37° C. and 5% CO2. NCI—N87 cells in the exponential growth stage were collected, resuspended in PBS to a suitable concentration, and inoculated subcutaneously into Balb/c-nu mice to construct xenograft models of […]. When the mean tumor volume was about 100-200 mm^3, the mice were randomly grouped into a physiological saline group, a T-030 (0.23 mg/kg, IV, single dose) group and a BT001021 (10 mg/kg, IV, single dose) group according to the tumor size, followed by tail intravenous injection of corresponding drugs. For the T-030 group, serum and tumor tissues were collected 1 h, 2 h, 4 h, 8 h, 24 h and 72 h after administration (T-030 was not detected in the serum and tumor tissues 72 h after administration, therefore, serum and tumor tissues were not collected 168 h after administration). For BT001021 group, serum and tumor tissues were collected 1 h, 2 h, 4 h, 8 h, 24 h, 72 h and 168 h after administration to test the concentration of the T-030 in the serum and the tumors by LC-MS/MS. The administration dose of the T-030 (0.23 mg/kg) was converted to isomolar dose (10 mg/kg) of BT001021."}, "[5]": {"settings": "Balb/c-nu, mouse, in vivo, Serum"}, "[6]": {"settings": "Balb/c-nu, mouse, in vivo, Tumor"}}, "note": "Like-named read-outs stand apart in the source and are kept apart here. Non-standard residues stand in square brackets, D forms with d. Residues, ends and D or L forms follow the SMILES beside them. ξ: configuration not given here. *: point of attachment. Dolaproine = CO[C@@H]([C@@H]1CCCN1)[C@@H](C)C(=O)O; Dil = CC[C@H](C)[C@H](NC)[C@@H](CC(=O)O)OC; NH(4-aminobenzyl) = Nc1ccc(CN*)cc1; NMe2Val = CC(C)[C@@H](C(=O)*)N(C)C; β3hF = N[C@H](CC(=O)O)Cc1ccccc1; ξF = NC(Cc1ccccc1)C(=O)O"}
{"smiles": "CC[C@H](C)[C@@H]([C@@H](CC(=O)N1CCC[C@H]1[C@H](OC)[C@@H](C)C(=O)N[C@H](Cc1ccccc1)C(=O)NCc1ccc(N)cc1)OC)N(C)C(=O)[C@@H](NC(=O)[C@H](C(C)C)N(C)C)C(C)C", "note": "[T012] (NMe2Val-V[Dil][Dolaproine][dF]-{NH(4-aminobenzyl)})", "values": [{"measurement": "EC50", "setting": "[1]", "value": 1.62, "unit": "nM"}]}
{"smiles": "CC[C@H](C)[C@@H]([C@@H](CC(=O)N1CCC[C@H]1[C@H](OC)[C@@H](C)C(=O)NC(Cc1ccccc1)C(=O)NCc1ccc(N)cc1)OC)N(C)C(=O)[C@@H](NC(=O)[C@H](C(C)C)N(C)C)C(C)C", "note": "(stereo partly drawn) [T001, (2S)—N-((3R,4S,5S)-1-((2S)-2-((1R,2R)-3-((1-((4-aminobenzyl)amino)-1-oxo-3-phenylpropan-2-yl)amino)-1-methoxy-2-methyl-3-propionyl)pyrrolidin-1-yl)-3-methoxy-5-methyl-1-heptanoyl-4-yl)-2-((S)-2-(dimethylamino)-3-methylbutyrylamino)-N,3-dimethylbutyramide] (NMe2Val-V[Dil][Dolaproine][ξF]-{NH(4-aminobenzyl)})", "values": [{"measurement": "EC50", "setting": "[1]", "value": 1.13, "unit": "nM"}]}
{"smiles": "CC[C@H](C)[C@@H]([C@@H](CC(=O)N1CCC[C@H]1[C@H](OC)[C@@H](C)C(=O)NCC(=O)NCc1ccc(N)cc1)OC)N(C)C(=O)[C@@H](NC(=O)[C@H](C(C)C)N(C)C)C(C)C", "note": "[T015] (NMe2Val-V[Dil][Dolaproine]G-{NH(4-aminobenzyl)})", "values": [{"measurement": "EC50", "setting": "[1]", "value": 7.43, "unit": "nM"}]}
{"smiles": "CC[C@@]1(O)C(=O)OCc2c1cc1n(c2=O)Cc2c-1nc1ccccc1c2CCN(C(C)C)S(C)(=O)=O", "note": "[T-030, (S)—N-(2-(4-ethyl-4-hydroxyl-3,14-dione-3,4,12,14-tetrahydro-1H-pyrano[3′,4′,6,7]indolizino[1,2-b]quinolin-11-yl)ethyl)-N-isopropylmethanesulfonamide]", "values": [{"measurement": "EC50", "setting": "[2]; 72 h, HCC1806, 7500 cells/well, 3 days", "value": 6.73, "unit": "nM"}, {"measurement": "Tumor Volume (mm^3) (x ± S)", "setting": "[3]", "value": "339.02 ± 152.80", "unit": "mm^3"}, {"measurement": "Tumor growth inhibition rate (%)", "setting": "[3]", "value": 21.48, "unit": "%"}, {"measurement": "T-030 in the serum and tumor tissues", "setting": "[4]; 72 h after administration, IV", "value": "not detected"}, {"measurement": "Cmax", "setting": "[4]; [5]", "value": 1.81, "unit": "ng/mL"}, {"measurement": "AUC(0-t)", "setting": "[4]; [5]", "value": 5.58, "unit": "ng·h/mL"}, {"measurement": "MRT inf", "setting": "[4]; [5]", "value": 1.11, "unit": "h"}, {"measurement": "half-life", "setting": "[4]; [5]", "value": 1.76, "unit": "h"}, {"measurement": "Cmax", "setting": "[4]; [6]", "value": 1.2, "unit": "ng/mL"}, {"measurement": "AUC(0-t)", "setting": "[4]; [6]", "value": 3.85, "unit": "ng·h/mL"}, {"measurement": "MRT inf", "setting": "[4]; [6]", "value": 1.52, "unit": "h"}, {"measurement": "half-life", "setting": "[4]; [6]", "value": 2.55, "unit": "h"}, {"measurement": "Tmax", "setting": "[4]; Balb/c-nu, mouse, in vivo, Tumor, IV", "value": 1, "unit": "h"}]}
{"smiles": "CC[C@H](C)[C@@H]([C@@H](CC(=O)N1CCC[C@H]1[C@H](OC)[C@@H](C)C(=O)N[C@H](CC(=O)NCc1ccc(N)cc1)Cc1ccccc1)OC)N(C)C(=O)[C@@H](NC(=O)[C@H](C(C)C)N(C)C)C(C)C", "note": "[T013] (NMe2Val-V[Dil][Dolaproine][β3hF]-{NH(4-aminobenzyl)})", "values": [{"measurement": "EC50", "setting": "[1]", "value": 0.414, "unit": "nM"}]}
{"smiles": "CC[C@@]1(O)C(=O)OCc2c1cc1n(c2=O)Cc2c-1nc1ccccc1c2CCN(C(C)=O)C(C)C", "note": "[T-028, (S)—N-(2-(4-ethyl-4-hydroxyl-3,14-dione-3,4,12,14-tetrahydro-1H-pyrano [3′,4′,6,7]indolizino[1,2-b]quinolin-11-yl)ethyl)-N-isopropylacetamide]", "values": [{"measurement": "EC50", "setting": "[2]; HCC1806, 72 h", "value": 6.02, "unit": "nM"}]}
{"smiles": "CCc1c2c(nc3ccc(O)cc13)-c1cc3c(c(=O)n1C2)COC(=O)[C@]3(O)CC", "note": "[SN-38]", "values": [{"measurement": "Tumor Volume (mm^3) (x ± S)", "setting": "[3]", "value": "416.11 ± 195.15", "unit": "mm^3"}, {"measurement": "Tumor growth inhibition rate (%)", "setting": "[3]", "value": "−2.75", "unit": "%"}]}
{"smiles": "CC[C@H](C)[C@@H]([C@@H](CC(=O)N1CCC[C@H]1[C@H](OC)[C@@H](C)C(=O)N[C@@H](Cc1ccccc1)C(=O)NCc1ccc(N)cc1)OC)N(C)C(=O)[C@@H](NC(=O)[C@H](C(C)C)N(C)C)C(C)C", "note": "[T011] (NMe2Val-V[Dil][Dolaproine]F-{NH(4-aminobenzyl)})", "values": [{"measurement": "EC50", "setting": "[1]", "value": 0.211, "unit": "nM"}]}
